Patent US20100035911A1, “DRUG COMBINATIONS TO TREAT HYPERPROLIFERATIVE DISORDERS” (priority 2006, published 2010)

How the values were obtained:
[1] = test system: human neuroblastoma cell line CHLA-136; assay: Event-free survival of mice bearing CHLA-136 subcutaneous xenografts; assay type: in vivo, nu/nu mice; details: CHLA-136 xenograft; single agents at the drug doses employed
From the text: Treating cancer in xenografts with fenretinide+ABT-751. Administration of fenretinide and ABT-751 in combination to nu/nu mice bearing subcutaneous xenografts of multi-drug resistant neuroblastoma xenografts (tumor cell lines are described in: Keshelava N, Zuo J J, Chen P, Waidyaratine S N, Luna M C, Gomer C J, Triche T J, Reynolds C P: Loss of p53 function confers high-level multi-drug resistance in neuroblastoma cell lines. Cancer Research 61:6185-6193, 2001, and xenograft methods are described in: Reynolds, C P, Sun B C, DeClerck Y A, Moats R A: Assessing growth and response to therapy in murine tumor models. Methods in Molecular Medicine Chemosensitivity Vol 2 ed. Blumenthal R D, Totowa: Humana Press pp 335-350, 2005.
Mice were treated daily with ABT-751, and twice daily with fenretinide for 5 days/week. Fenretinide was given as a powder LXS formulation mixed with water (Maurer B J, Kalous O, Yesair D W, Wu X, Vratilova J, Maldonado V, Khankaldyyan V, Frgala T, Sun B C, McKee R T, Burgess S W, Shaw W A, Reynolds C P. Improved oral delivery of N-(4-hydroxyphenyl)retinamide with novel LYM-X-SORB™ organized lipid complex in mice. Clinical Cancer Research (In Press, 2007)). Both drugs were given to mice by gavage.

[2] = test system: human ovarian cancer cell line, CRL-1572; assay: Survival of mice bearing CRL-1572 ovarian cancer subcutaneous xenografts; assay type: in vivo; details: CRL-1572 xenografts; single agents at the drug doses employed
From the text: Fenretinide combined with taxanes is active against ovarian cancer Xenografts. Based on the surprising and favorable results observed when combining ABT-751 with fenretinide with neuroblastoma xenografts and vincristine with fenretinide for a lymphoma xenograft, we explored other types of cancer as xenografts and we also sought to test taxanes for a possible increase in activity when combined with fenretinide.

[3] = test system: human Ramos Burkitts lymphoma cell line; assay: Survival of mice bearing Ramos lymphoma subcutaneous xenografts; assay type: in vivo; details: single agents at the drug doses employed
Description: Treating lymphoma xenografts with fenretinide combined with vincristine. […] Testing of fenretinide+vincristine was carried out as described for fenretinide+ABT-751 in Example 1, except that vincristine was given by i.p. injection twice a week during the 5 day administration of fenretinide.

[4] = cited from earlier work

With `COc1ccc(S(=O)(=O)Nc2cccnc2Nc2ccc(O)cc2)cc1` [ABT-751] as the compound, how does the “response of xenograft to single agent” value [1] read?
Its value is “minimally response”.

Which “response of tumor cell line to single agent” value (“response of tumor cell line” below) [2] does the source give for `CC1=C(/C=C/C(C)=C/C=C/C(C)=C/C(=O)Nc2ccc(O)cc2)C(C)(C)CCC1` [fenretinide, all-trans-N-(4-hydroxyphenyl)retinamide] here?
The value was “minimally responsive”.

And the “response of tumor cell line” value [3]?
The value was “minimally responsive”.

And the “response of xenograft to single agent” value [1]?
The value was “minimally response”.

What about the “solubility in aqueous solution” value [4] of the same compound?
Its value is “minimally soluble”.

With `CC(=O)O[C@H]1C(=O)[C@@]2(C)[C@H]([C@H](OC(=O)c3ccccc3)[C@]3(O)C[C@H](OC(=O)[C@H](O)[C@@H](NC(=O)c4ccccc4)c4ccccc4)C(C)=C1C3(C)C)[C@]1(OC(C)=O)CO[C@@H]1C[C@@H]2O` [paclitaxel] as the compound, how does the “response of tumor cell line” value [2] read?
The value was “minimally responsive”.

Which “response of tumor cell line” value [3] does the source give for vincristine here?
The value was “minimally responsive”.
